In ChEMBL document CHEMBL1201862, “PubChem BioAssay data set” (2004):
“And” between values parts separate entries of the source, which are not always exact repeats. Equal values may be shown once. The source made the active and inactive calls.

Assays:
[1] = Luminescent dose response cell-based high throughput screening assay for inhibitors of the Janus kinase 2 mutant JAK2V617F. [Related pubchem assays: 1446 (Primary screen.), 1521 (Confirmation assay.), 1486 (Counter screen.)]; format: functional
[2] = HEp-2 cell cytotoxicity, dose response, cytotoxicity control for RSV inhibitor project, HTS (AID 2410); format: functional; settings: human respiratory syncytial virus
[3] = microbe, parasite or virus in culture; format: functional; settings: Mycobacterium tuberculosis
Protein RecA = target: T1, Protein RecA (Mycobacterium tuberculosis, UniProt P9WHJ3); assay: Fluorescence Cell-Free Homogeneous Dose Retest to Identify Inhibitors of RecA-Intein Splicing Activity. [Related pubchem assays (depositor defined):AID2097, AID2223, AID489010, AID492950]; format: functional
T1 sequence (P9WHJ3 whole entry): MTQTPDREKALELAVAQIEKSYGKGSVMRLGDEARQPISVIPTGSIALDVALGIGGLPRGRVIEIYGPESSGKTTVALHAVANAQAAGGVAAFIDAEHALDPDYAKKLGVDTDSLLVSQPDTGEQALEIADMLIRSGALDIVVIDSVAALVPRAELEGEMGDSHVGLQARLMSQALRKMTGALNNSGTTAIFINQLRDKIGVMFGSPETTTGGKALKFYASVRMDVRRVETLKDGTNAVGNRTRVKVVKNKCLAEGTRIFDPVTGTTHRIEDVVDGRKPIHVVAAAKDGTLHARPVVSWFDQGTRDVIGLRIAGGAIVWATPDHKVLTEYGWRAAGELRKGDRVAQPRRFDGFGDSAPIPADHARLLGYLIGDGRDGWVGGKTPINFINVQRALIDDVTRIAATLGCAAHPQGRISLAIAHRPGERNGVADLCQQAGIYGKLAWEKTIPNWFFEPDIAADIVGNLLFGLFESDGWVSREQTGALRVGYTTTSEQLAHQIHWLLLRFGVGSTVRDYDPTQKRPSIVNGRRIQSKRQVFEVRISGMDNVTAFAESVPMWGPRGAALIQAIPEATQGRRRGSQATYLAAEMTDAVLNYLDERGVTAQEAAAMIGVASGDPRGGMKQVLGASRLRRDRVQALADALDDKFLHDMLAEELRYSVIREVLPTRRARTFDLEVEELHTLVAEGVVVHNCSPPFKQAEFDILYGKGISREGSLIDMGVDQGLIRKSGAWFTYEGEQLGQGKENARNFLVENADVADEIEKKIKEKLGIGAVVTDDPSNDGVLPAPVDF

[4] = target: Serine/threonine-protein phosphatase (Homo sapiens, UniProt Q9BPW0); assay: PP5 phosphatase inhibitors, dose response, biochemical, fluorescence (AID 2395)
Nonstructural protein 1 = Nonstructural protein 1 (Influenza A virus, UniProt Q194T2); format: functional, Influenza A virus (A/California/07/2009(H1N1))
[5] = target: T2, Replicative DNA helicase DnaB (Mycobacterium tuberculosis, UniProt P9WMR3); assay: DnaB intein splicing inhibitors, dose response, biochemical, cell-free fluorescence (AID 449749); format: functional
T2 sequence (P9WMR3 whole entry): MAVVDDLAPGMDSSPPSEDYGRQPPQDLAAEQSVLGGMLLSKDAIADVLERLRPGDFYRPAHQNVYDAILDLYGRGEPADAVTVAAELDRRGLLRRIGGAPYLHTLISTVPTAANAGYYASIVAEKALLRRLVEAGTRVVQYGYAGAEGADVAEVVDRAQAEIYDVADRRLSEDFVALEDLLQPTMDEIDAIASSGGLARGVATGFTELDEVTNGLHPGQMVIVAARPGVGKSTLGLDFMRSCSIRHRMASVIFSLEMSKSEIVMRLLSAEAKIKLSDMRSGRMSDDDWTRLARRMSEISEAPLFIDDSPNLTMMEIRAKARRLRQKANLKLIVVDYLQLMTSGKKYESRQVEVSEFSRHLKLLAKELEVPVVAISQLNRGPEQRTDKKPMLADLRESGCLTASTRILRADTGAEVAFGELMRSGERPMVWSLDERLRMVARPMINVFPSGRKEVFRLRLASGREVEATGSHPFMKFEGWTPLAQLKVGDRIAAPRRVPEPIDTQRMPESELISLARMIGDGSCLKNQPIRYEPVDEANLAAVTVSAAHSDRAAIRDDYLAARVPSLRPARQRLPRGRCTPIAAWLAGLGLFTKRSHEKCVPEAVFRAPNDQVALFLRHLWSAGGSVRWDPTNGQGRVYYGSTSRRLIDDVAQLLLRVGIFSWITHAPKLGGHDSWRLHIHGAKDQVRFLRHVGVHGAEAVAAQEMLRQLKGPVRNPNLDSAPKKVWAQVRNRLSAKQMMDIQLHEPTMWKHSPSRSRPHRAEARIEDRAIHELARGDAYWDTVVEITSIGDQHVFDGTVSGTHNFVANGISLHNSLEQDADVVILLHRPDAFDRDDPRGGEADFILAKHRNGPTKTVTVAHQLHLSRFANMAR

[6] = target: Serine/threonine-protein phosphatase PP1-alpha catalytic subunit (Homo sapiens, UniProt P62136); assay: PP1 phosphatase inhibitors, dose response, biochemical, fluorescence (AID 2394)
[7] = target: T3, Apoptotic protease-activating factor 1 (Homo sapiens, UniProt O14727); format: functional
T3 sequence (O14727 whole entry): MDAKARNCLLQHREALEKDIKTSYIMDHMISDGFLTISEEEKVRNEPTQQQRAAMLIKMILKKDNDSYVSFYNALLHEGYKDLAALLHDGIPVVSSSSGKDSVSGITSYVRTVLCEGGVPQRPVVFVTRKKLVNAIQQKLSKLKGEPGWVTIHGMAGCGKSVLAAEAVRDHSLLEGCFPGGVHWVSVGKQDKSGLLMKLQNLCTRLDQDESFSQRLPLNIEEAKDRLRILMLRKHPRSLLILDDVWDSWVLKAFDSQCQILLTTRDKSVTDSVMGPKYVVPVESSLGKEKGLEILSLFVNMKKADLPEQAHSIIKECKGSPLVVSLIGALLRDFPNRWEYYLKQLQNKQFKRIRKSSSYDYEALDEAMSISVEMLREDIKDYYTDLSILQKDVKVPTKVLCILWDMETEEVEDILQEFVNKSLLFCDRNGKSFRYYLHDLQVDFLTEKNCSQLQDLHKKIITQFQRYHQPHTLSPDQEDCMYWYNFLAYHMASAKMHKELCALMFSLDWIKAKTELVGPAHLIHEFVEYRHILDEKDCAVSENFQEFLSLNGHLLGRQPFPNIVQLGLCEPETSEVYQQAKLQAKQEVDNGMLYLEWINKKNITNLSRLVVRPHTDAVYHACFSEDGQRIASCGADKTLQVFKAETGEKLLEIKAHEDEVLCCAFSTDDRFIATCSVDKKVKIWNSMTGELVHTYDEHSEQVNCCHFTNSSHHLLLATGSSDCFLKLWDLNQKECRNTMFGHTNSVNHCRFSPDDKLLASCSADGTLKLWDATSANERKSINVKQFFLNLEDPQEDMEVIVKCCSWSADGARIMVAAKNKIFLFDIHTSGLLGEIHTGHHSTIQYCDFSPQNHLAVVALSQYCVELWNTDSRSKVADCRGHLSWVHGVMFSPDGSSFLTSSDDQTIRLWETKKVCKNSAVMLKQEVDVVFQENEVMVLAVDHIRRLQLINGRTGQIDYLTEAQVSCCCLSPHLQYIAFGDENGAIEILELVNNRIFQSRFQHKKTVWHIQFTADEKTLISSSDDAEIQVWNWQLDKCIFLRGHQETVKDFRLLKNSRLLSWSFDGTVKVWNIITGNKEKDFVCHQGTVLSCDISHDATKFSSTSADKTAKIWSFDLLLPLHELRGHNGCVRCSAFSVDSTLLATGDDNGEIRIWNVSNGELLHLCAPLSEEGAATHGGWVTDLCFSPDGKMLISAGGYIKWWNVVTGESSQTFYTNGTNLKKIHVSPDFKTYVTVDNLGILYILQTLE

[8] = SNU-C1 cell viability reduction, dose response, CellTiter-Glo luminescence (AID 1117323); format: functional, cell-based
Fibrinogen beta chain [9] = target: T4, Fibrinogen beta chain (Homo sapiens, UniProt P02675); assay: Fluorescence polarization-based biochemical high throughput dose response assay to identify inhibitors that disrupt the binding of a cyclic peptide (Tn6) to the fibrin proteolytic product D-Dimer and fragment E complex [DD(E )].
T4 sequence (P02675 whole entry): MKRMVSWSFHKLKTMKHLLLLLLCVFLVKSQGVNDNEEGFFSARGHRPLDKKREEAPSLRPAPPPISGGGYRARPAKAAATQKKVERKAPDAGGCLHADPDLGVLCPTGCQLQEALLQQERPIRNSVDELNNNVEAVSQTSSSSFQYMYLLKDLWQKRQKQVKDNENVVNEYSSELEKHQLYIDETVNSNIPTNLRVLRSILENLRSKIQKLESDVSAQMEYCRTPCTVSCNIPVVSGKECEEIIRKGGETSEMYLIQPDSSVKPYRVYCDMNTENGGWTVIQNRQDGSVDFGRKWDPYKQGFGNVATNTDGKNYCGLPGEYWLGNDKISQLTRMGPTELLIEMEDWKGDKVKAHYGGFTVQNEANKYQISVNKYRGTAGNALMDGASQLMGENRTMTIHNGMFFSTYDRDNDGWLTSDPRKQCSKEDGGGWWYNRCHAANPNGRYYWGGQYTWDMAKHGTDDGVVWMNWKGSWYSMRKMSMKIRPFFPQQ

[10] = Concentration-dependent survival of SW480 colon cancer line, luminescence detection with CellTiter-Glo, half-maximal inhibitory concentration (AID 1117338); format: functional
[11] = Glucagon-like peptide 1 release potency, NCI-H716 cell line, dose-response, half-maximal inhibitory concentration (AID 1117344); format: functional, cell-based
[12] = human group III sPLA2 inhibitors, dose response, biochemical, QFRET, IC50 (AID 743457);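 note: green fluorescence rise as the enzyme cleaves BODIPY PC-A2 in liposomes; potency for inhibition of the enzyme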
[13] = RKO cell viability reduction, dose response, CellTiter-Glo luminescence (AID 1117322); format: functional
Cytochrome P450 2D6 = Cytochrome P450 2D6 (Homo sapiens, UniProt P10635);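 note: CYP2D6 member of a cytochrome P450 panel assay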
Fibrinogen beta chain [14] = target: T4, Fibrinogen beta chain; assay: Fluorescence polarization-based biochemical high throughput dose response assay to identify inhibitors that disrupt the binding of a cyclic peptide (Tn7) to the fibrin proteolytic product D-Dimer and fragment E complex [DD(E )].
[15] = half-maximal inhibitory concentration for glucagon-like peptide-1 release, STC-1 cell line, dose-response (AID 1117345); format: functional, cell-based
[16] = cytotoxicity toward HCT116 cells – cell-based, CellTiter-Glo luminescence, IC50, dose response (AID 1117332); format: functional; settings: HCT-116
[17] = CellTiter-Glo luminescent dose response of DLD-1 viability loss (AID 1117352); format: functional
[18] = cytotoxicity toward Colo320 cells – cell-based, CellTiter-Glo luminescence, IC50, dose response (AID 1117334); format: functional; settings: COLO 320
[19] = Luminescence Cell-Based Dose Confirmation HTS to Identify Activators of 5'UTR Stem-Loop Driven Alpha-Synuclein mRNA Translation in H4 Neuroglioblastoma Cells. [Related pubchem assays: 1829 (Project Summary), 1814 (Primary HTS)]; format: functional
H4 = assay: Luminescence Cell-Based Dose Response HTS to Identify Activators of 5'UTR Stem-Loop Driven Prion Protein mRNA Translation in H4 Neuroglioblastoma Cells. [Related pubchem assays: 1829 (Project Summary), 1814 (Primary HTS)]; format: functional; settings: Homo sapiens
[20] = Luminescence Cell-Based Dose Response HTS to Identify Activators of Luciferase Translation or Activity in H4 […] Cells. [Related pubchem assays: 1829 (Project Summary), 1814 (Primary HTS)]; format: functional

Chain of Nonstructural protein 1 (Q194T2 whole entry): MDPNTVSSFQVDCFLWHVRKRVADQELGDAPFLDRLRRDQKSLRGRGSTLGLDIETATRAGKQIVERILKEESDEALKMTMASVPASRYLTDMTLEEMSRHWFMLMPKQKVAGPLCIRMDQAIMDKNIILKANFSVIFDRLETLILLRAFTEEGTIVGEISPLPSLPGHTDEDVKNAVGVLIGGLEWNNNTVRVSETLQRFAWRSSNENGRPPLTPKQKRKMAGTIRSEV
Chain of Serine/threonine-protein phosphatase PP1-alpha catalytic subunit (P62136 whole entry): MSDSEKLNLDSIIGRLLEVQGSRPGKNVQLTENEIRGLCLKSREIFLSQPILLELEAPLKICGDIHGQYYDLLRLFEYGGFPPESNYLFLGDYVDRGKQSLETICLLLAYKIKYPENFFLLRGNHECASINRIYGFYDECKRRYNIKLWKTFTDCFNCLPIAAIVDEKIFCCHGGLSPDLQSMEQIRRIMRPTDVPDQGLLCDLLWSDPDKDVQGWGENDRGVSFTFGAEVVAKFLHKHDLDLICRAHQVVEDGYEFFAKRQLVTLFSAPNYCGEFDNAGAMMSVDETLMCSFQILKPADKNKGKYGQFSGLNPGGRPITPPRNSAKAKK
Chain of Serine/threonine-protein phosphatase (Q9BPW0 whole entry): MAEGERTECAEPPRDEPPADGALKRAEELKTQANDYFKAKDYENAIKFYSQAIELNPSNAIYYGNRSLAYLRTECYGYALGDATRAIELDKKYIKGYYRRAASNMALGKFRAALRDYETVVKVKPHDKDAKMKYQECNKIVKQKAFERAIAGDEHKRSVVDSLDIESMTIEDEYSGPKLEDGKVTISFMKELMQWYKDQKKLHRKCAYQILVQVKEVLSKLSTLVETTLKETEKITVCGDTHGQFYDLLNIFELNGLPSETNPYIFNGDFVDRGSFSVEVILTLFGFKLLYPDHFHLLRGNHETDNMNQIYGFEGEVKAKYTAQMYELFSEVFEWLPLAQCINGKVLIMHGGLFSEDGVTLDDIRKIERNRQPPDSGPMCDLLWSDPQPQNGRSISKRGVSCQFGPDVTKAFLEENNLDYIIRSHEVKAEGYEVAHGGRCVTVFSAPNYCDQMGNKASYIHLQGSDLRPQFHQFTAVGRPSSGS
Chain of Cytochrome P450 2D6 (P10635 whole entry, the tested form may be a part): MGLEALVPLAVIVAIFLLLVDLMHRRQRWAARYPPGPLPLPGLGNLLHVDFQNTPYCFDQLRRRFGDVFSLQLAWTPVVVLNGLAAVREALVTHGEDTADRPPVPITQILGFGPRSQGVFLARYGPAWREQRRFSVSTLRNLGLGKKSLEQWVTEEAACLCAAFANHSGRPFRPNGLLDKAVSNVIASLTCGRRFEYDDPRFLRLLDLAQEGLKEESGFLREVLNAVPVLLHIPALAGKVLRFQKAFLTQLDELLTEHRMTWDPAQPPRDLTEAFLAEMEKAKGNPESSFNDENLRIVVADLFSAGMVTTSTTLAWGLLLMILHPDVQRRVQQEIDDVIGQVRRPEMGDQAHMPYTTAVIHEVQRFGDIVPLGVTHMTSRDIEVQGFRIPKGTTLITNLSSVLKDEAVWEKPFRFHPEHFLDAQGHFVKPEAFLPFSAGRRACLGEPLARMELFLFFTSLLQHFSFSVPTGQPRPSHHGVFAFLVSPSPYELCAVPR

O=C(CCl)NCc1cc(-c2ccc(Cl)cc2)no1
active: IC50 [1] 1.23 µM | CC50 [2] 4.01 µM | CC50 [3] 9.8 µM

Cc1ccc(NC2=C(N3CCOCC3)C(=O)c3ccccc3C2=O)cc1
active: EC50 (Protein RecA) 15.7 µM | IC50 (Nonstructural protein 1) 7.74 µM | AC50 [5] 10.7 µM | IC50 [7] 19.4 µM
20.9 µM (not active): IC50 [4]
> 67 µM (not active): IC50 [6]

C[n+]1cc2c3c(ccc2c2ccc4cc5c(cc4c21)OCO5)OCO3
inconclusive: AC50 (Cytochrome P450 2D6) 31.6 µM and 7.94 µM
inactive: IC50 (Fibrinogen beta chain [9]) 24.2 µM | IC50 [11] > 40 µM | IC50 [12] 51.8 µM | IC50 (Fibrinogen beta chain [14]) > 83.1 µM | IC50 [15] > 40 µM
active: IC50 [8] 0.316 µM | IC50 [10] 0.379 µM | IC50 [13] 0.265 µM | IC50 [16] 0.525 µM | IC50 [17] 0.576 µM | IC50 [18] 0.35 µM

O=C1C(c2ccccc2)=[N+]([O-])c2ccccc21
active: EC50 [19] 12.7 µM | IC50 (Nonstructural protein 1) 45.5 µM | EC50 (H4) 20 µM | EC50 [20] 36.4 µM | IC50 [6] 2.67 µM | IC50 [7] 5.8 µM
10.3 µM (not active): IC50 [4]
